According to US11771086B2, “Pest control composition including novel iminopyridine derivative” (priority 2012, dated 2023):
Like-named read-outs stand apart in the source and are kept apart here.

How the values were obtained:
Plutella xylostella = experiment: whole plant or invertebrate; assay type: in vivo
Protocol: After an air drying process, second instar larvae were released thereto. […] The test was performed in duplicate.
(§1) Method for Judging Synergistic Effects

Spodoptera litura = experiment: whole plant or invertebrate; assay type: in vivo; details: for Theoretical value by Colby's equation: Spodoptera litura; for Mortality of single agent against Spodoptera litura: cabbage leaf disk spray, three days
Protocol: After an air drying process, third instar larvae were released thereto. […] The test was performed in duplicate.
as §1

Aphis gossypii = experiment: whole plant or invertebrate; assay type: in vivo
Protocol: The test was performed in duplicate.
as §1

Rhizoctonia solani = experiment: Test Example 12 Test of control of rice sheath blight (Rhizoctonia solani); assay type: in vivo; details: single agent 5 ppm; foliar spray; six days after inoculation
rice blast = assay type: in vivo; details: single agent 0.5 ppm; foliar application; fourteen days after inoculation
Laodelphax striatellus = experiment: Test Example 14 Test with Laodelphax striatellus by soil irrigation treatment (mixture with paddy herbicide); assay type: in vivo; details: single agent 0.05 mg/seedling, five days after release
Protocol: After standing for three days, second instar larvae were released thereto. […] The test was performed in duplicate.

Naranga aenescens = assay type: in vivo; details: for Mortality of single agent against Naranga aenescens: soil irrigation, five days after release
Protocol: After standing for 3 days, first instar larvae were released thereto. […] The test was performed in duplicate.
as §1

Callosobruchus chinensis = assay type: in vivo; details: single agent 0.2 ng/head; topical; one day
Protocol: A compound of Formula (I) and the insecticide indicated below, prepared in predetermined concentrations using acetone, were separately topically applied to the back of the same adult Callosobruchus chinensis. […] The test was performed in duplicate. Insect mortality (%)={number of dead insects/(number of survived insects+number of dead insects)}×100
(A: 100−(insect mortality for treatment with only Compound P212)
B: 100−(insect mortality for treatment with only the insecticide fipronil or imidacloprid))
as §1

Chilo suppressalis = assay type: in vivo; details: for Mortality of single agent against Chilo suppressalis: soil irrigation, six days after release
Protocol: After standing for 3 days, second instar larvae were released thereto. […] The test was performed in duplicate.
as §1

Laodelphax striatella = experiment: whole plant or invertebrate; details: for mortality at 0.005 mg/seedling: read-out: Mortality of single agent against Laodelphax striatella, single agent 0.005 mg/Seedling; for Theoretical value by Colby's equation: Laodelphax striatella soil irrigation, single agent 0.5 mg/Seedling (other component 0); for Mortality of single agent against Laodelphax striatella: single agent 0.5 mg/Seedling
Protocol: (§2) After the rice seedling was left to stand for 3 days, second instar larvae were released thereto. Thereafter, the larvae were left to stand in a thermostatic chamber (16 hours of light period-8 hours of dark period) at 25° C. […] The test was performed in duplicate. Mortality of larvae (%)={number of dead larvae/(number of survived larvae+number of dead larvae)}×100
B: 100−(mortality of larvae or adults when treated only with each of imidacloprid, fipronil, chlorantraniliprole, spinosad, clothianidin, dinotefuran, sulfoxaflor, pymetrozine, thiamethoxam, flupyradifurone and cycloxaprid))
as §1
When the mortality against Laodelphax striatella in the case of a mixture with another agent exceeded the theoretical value by the Colby's equation, a synergistic effect was judged to be present.

[1] = tested on: Nilaparvata lugens resistant population II; experiment: Reference Test Example 19 Pest control test of Nilaparvata lugens, resistant population II (soil drench); assay type: in vivo; details: for Insecticidal effects against Nilaparvata lugens (death rate %), Resistant population II: soil drench, six days
Protocol: (§3) Three days after the treatment, ten second instar larvae of Nilaparvata lugens, which had been collected outdoors and proliferated indoors, were each released to the rice seedling. […] Test in duplicate.
(§4) Furthermore, for comparison, the test against a species of Nilaparvata lugens which is highly susceptible to imidacloprid was performed by the same method as described above, and the results thereof are shown in Table 45. […] Meanwhile, the death rates of imidacloprid at 0.05 mg/seedling were (susceptible species) 100%, (resistant population I) 38% and (resistant population II) 69%, and the insecticidal effect thereof was also low even at a high dose. From the above results, it became obvious that Compound P212 and Compound 1-20 have high insecticidal effects even against Nilaparvata lugens resistance against imidacloprid.
(§5) Further, for the origin of test pests, bugs collected outdoors from the Kumamoto prefecture (I) in 2007 and from the Fukuoka prefecture (II) in 2005 as resistant population of Nilaparvata lugens, and bugs collected from the Kagoshima prefecture and then successively reared indoors for a long time as the imidacloprid susceptible population of Nilaparvata lugens were used.

[2] = tested on: Haemaphysalis longicornis; experiment: whole plant or invertebrate; assay type: in vivo; details: Haemaphysalis longicornis, topical, 120 h, read-out: Mortality of single agent against Haemaphysalis longicornis, single agent 1.9 μg; capsule on mouse; five days; mortality and agonal rate
Protocol: A capsule with a diameter of 2 cm and a height of 2 cm was attached to the dorsal surface of a mouse. A compound of Formula (I), ivermectin, moxidectin, permethrin, amitraz, fipronil, spinetram and the mixture of the compound of Formula (I) and each insecticide were dissolved in ethanol at the concentrations given in […], and each of these was dripped onto the surface of a mouse body within a capsule. After thorough drying, eight Haemaphysalis longicornis nymphs were released and the top of the capsule was sealed with a lid. The mouse was kept in a cage at 25° C. using a 12-hour light period and a 12-hour dark period. Five days after the release, the capsule was removed and the number of surviving and dead nymphs and the number of engorged individuals were counted and the insect mortality and agonal rate was calculated by the following equation. Insect mortality and agonal rate (%)={number of dead and agonal insects/(number of survived insects+number of dead and agonal insects)}×100

[3] = tested on: Nilaparvata lugens resistant population I; experiment: Reference Test Example 19 Pest control test of Nilaparvata lugens, resistant population I (soil drench); assay type: in vivo
Protocol: as §3, §4, §5

[4] = tested on: Nilaparvata lugens susceptible species (highly susceptible to imidacloprid); experiment: Reference Test Example 19 Pest control test of Nilaparvata lugens, imidacloprid susceptible species (soil drench); assay type: in vivo; details: for Insecticidal effects against Nilaparvata lugens (death rate %), Susceptible population: soil drench, six days
Protocol: as §3, §4, §5

[5] = tested on: Frankliniella occidentalis; experiment: whole plant or invertebrate
Protocol: as §2, with “an air drying process, first” for “the rice seedling was left to stand for 3 days, second”
(A: 100−(mortality of larvae or adults when treated only with Compound P212)
B: 100−(mortality of larvae or adults when treated with only the insecticide imidacloprid, dinotefuran, or acetamiprid))
as §1
When the mortality against Frankliniella occidentalis in the case of a mixture with another agent exceeded the theoretical value given by Colby's equation, a synergistic effect was judged to be present.

[6] = Laodelphax striatellus, soil, 72 h, soil irrigation

Compound: C[C@]1(COC(=O)C2CC2)[C@@H]2C[C@H](O)[C@@]3(C)Oc4cc(-c5cccnc5)oc(=O)c4[C@H](O)[C@@H]3[C@@]2(C)CC[C@@H]1OC(=O)C1CC1 [Afidopyropen]
- Theoretical value by Colby's equation (Plutella xylostella; Plutella xylostella, single agent 5 ppm (other component 0)): 0%
- Theoretical value by Colby's equation (Plutella xylostella; Plutella xylostella, single agent 10 ppm (other component 0)): 20%
- Mortality of single agent against Plutella xylostella (Plutella xylostella; single agent 5 ppm, cabbage leaf disk spray, three days): 0%
- Mortality of single agent against Plutella xylostella (Plutella xylostella; single agent 10 ppm, cabbage leaf disk spray, three days): 20%
- Theoretical value by Colby's equation (Spodoptera litura; single agent 5 ppm (other component 0)): 0%
- Theoretical value by Colby's equation (Spodoptera litura; single agent 10 ppm (other component 0)): 0%
- Mortality of single agent against Spodoptera litura (Spodoptera litura; single agent 5 ppm): 0%
- Mortality of single agent against Spodoptera litura (Spodoptera litura; single agent 10 ppm): 0%
- Theoretical value by Colby's equation (Aphis gossypii; Aphis gossypii, single agent 0.002 ppm (other component 0)): 25%
- Mortality of single agent against Aphis gossypii (Aphis gossypii; single agent 0.002 ppm, cucumber leaf disk spray, three days): 25%

Compound: CO/C=C(/C(=O)OC)c1ccccc1Oc1cc(Oc2ccccc2C#N)ncn1 [Azoxystrobin]
- Preventive value (Sheath blight test, lesion height) (Rhizoctonia solani): 95
- Preventive value (Rice blast test, number of lesions) (rice blast): 37

Compound: CCN(CC)C(=O)n1cnc(S(=O)(=O)c2c(C)cc(C)cc2C)n1 [Cafenstrole]
- Mortality of larvae (Laodelphax striatellus) (Laodelphax striatellus): 0%

Compound: CCCCOC(=O)[C@@H](C)Oc1ccc(Oc2ccc(C#N)cc2F)cc1 [Cyhalofop-butyl]
- Mortality of larvae (Laodelphax striatellus) (Laodelphax striatellus): 0%

Compound: Cc1ccc(NC(=O)NC(C)(C)c2ccccc2)cc1 [Daimuron]
- Mortality of larvae (Laodelphax striatellus) (Laodelphax striatellus): 0%

Compound: N#Cc1nn(-c2c(Cl)cc(C(F)(F)F)cc2Cl)c(N)c1[S+]([O-])C(F)(F)F (stereo not drawn) [Fipronil]
- Mortality of single agent against Naranga aenescens (Naranga aenescens; single agent 0.01 mg/seedling): 20%
- Theoretical value by Colby's equation (Plutella xylostella; 0.04 ppm): 50%
- mortality at 0.04 ppm (Plutella xylostella; Plutella xylostella, foliar, 72 h, read-out: Mortality of single agent against Plutella xylostella, single agent 0.04 ppm, cabbage leaf disk spray, three days): 50%
- Mortality of single agent against Callosobruchus chinensis (Callosobruchus chinensis): 0%
- Mortality of single agent against Chilo suppressalis (Chilo suppressalis; single agent 0.0005 mg/seedling): 40%
- mortality at 0.001 mg/seedling (Laodelphax striatella; Laodelphax striatellus, soil, 72 h, read-out: Mortality of single agent against Laodelphax striatella, single agent 0.001 mg/Seedling, soil irrigation): 0%
- mortality at 0.005 mg/seedling (Laodelphax striatella; [6]): 26%

Compound: CNC(=O)/C(=N/OC)c1ccccc1CO/N=C(C)/C(=N/OC)C(/C)=N/OC [Orysastrobin]
- Preventive value (Sheath blight test, lesion height) (Rhizoctonia solani): 72
- Preventive value (Rice blast test, number of lesions) (rice blast): 20
- Theoretical value by Colby's equation (Laodelphax striatella): 4%
- Mortality of single agent against Laodelphax striatella (Laodelphax striatella; soil irrigation): 4%

Compound: OCC1=C[C@H](N[C@H]2C[C@H](CO)[C@@H](O[C@@H]3O[C@H](CO)[C@@H](O)[C@H](O)[C@H]3O)[C@H](O)[C@H]2O)[C@H](O)[C@@H](O)[C@@H]1O [Validamycin]
- Preventive value (Sheath blight test, lesion height) (Rhizoctonia solani): 32

Compound: O=[N+]([O-])NC1=NCCN1Cc1ccc(Cl)nc1 [imidacloprid, reference compound]
- death rates ([1]; resistant population II, 0.05 mg/seedling, six days after the release): 69%
- Insecticidal effects against Nilaparvata lugens (death rate %), Resistant population II ([1]; throughput 0.01 mg/seedling): 39%
- Insecticidal effects against Nilaparvata lugens (death rate %), Resistant population II ([1]; throughput 0.05 mg/seedling): 69%
- mortality at 0.0019 mg [2]: 7.7%
- Mortality of single agent against Callosobruchus chinensis (Callosobruchus chinensis): 40%
- death rates ([3]; resistant population I, 0.05 mg/seedling, six days after the release): 38%
- Insecticidal effects against Nilaparvata lugens (death rate %), Resistant population I ([3]; throughput 0.05 mg/seedling, soil drench, six days): 38%
- death rates ([4]; susceptible species, 0.05 mg/seedling, six days after the release): 100%
- Insecticidal effects against Nilaparvata lugens (death rate %), Susceptible population ([4]; throughput 0.01 mg/seedling): 100%
- Insecticidal effects against Nilaparvata lugens (death rate %), Susceptible population ([4]; throughput 0.05 mg/seedling): 100%
- Theoretical value by Colby's equation ([5]; 20 ppm): 69%
- mortality at 20 ppm ([5]; Frankliniella occidentalis, foliar, 72 h, read-out: Mortality of single agent against Frankliniella occidentalis): 69%
- mortality at 0.005 mg/seedling (Laodelphax striatella; [6]): 0%

Compound: Spinosad
- Theoretical value by Colby's equation (Naranga aenescens; Naranga aenescens, single agent 0.005 mg/seedling (other component 0)): 40%
- Mortality of single agent against Naranga aenescens (Naranga aenescens; single agent 0.005 mg/seedling): 40%
- Theoretical value by Colby's equation (Plutella xylostella; Plutella xylostella, single agent 0.01 ppm (other component 0)): 11%
- Mortality of single agent against Plutella xylostella (Plutella xylostella; single agent 0.01 ppm, cabbage leaf disk spray, three days): 11%
- Theoretical value by Colby's equation (Chilo suppressalis; Chilo suppressalis, single agent 0.002 mg/seedling (other component 0)): 80%
- Mortality of single agent against Chilo suppressalis (Chilo suppressalis; single agent 0.002 mg/seedling): 80%
- Theoretical value by Colby's equation (Laodelphax striatella): 0%
- Mortality of single agent against Laodelphax striatella (Laodelphax striatella; soil irrigation): 0%
